How the values were obtained:
[1] = test system: T cells co-cultured with BMDM; assay: T cells co-cultured with bone marrow-derived macrophages (BMDM) polarized to M2; type: cell-based, mouse; conditions: for proliferation of T cells (CFSE dilution): macrophages differentiated in NM
Procedure: In vitro bone marrow-derived macrophage differentiation. For this purpose, bone marrow cells were aseptically collected from 8-10 weeks old female C57BL/6J mice by crushing the femurs and tibias in PBS, […] and 2 mM EDTA. Cells were added to ACK buffer to lyse the red blood cells for 2 mins with intermediate vortexing. The solution was filtered through a 40 μm strainer to remove bone fragments. To differentiate bone marrow cells to macrophages the cells were plated in DMEM media (100%) or DMEM media (70%) and 30% tumor-conditioned media, supplemented with 10% heat-inactivated charcoal-stripped serum in the presence of 30 ng/mL MCSF (Cat #312-02, PeproTech). After 3 days cells were supplemented with 50% of respective fresh media. On day 6 the media was removed and replaced with fresh media. […] For polarization, cells were further treated with LIPS (100 ng/mL, Cat L2630, Sigma Aldrich) and IFNγ (20 ng/mL, Cat #315-05, PeproTech) (24 hr) for M1 polarization or IL4 (10 ng/mL, cat #214-14, PeproTech) for M2 polarization.
T cell proliferation assay and staining. CD3+ T cells were isolated from the spleens of C57BL/6J or P-mel mice with magnetic bead-based T cell isolation kit (Cat #19851, StemCell Technologies). T cells from naïve mice were stained with 5 μM CFSE (Cat #C34554, ThermoFisher Scientific) for 5 minutes in PBS+5% CFS with rapid vortexing following which the cells were washed twice with PBS. Stained T cells were then counted and plated in 96-well plates coated with anti-CD3 antibody (0.5 μg/mL, Cat #19851, ThermoFisher Scientific) anti-CD28 antibody (1 μg/mL, Cat #16-0281-86, Thermo Fisher Scientific) at desired density (250,000 T cells/50,000 CD11b or BMDM) in the presence of IL2 (50 ng/mL) (Cat #212-12, PeproTech). 72 hr after plating the cells were incubated with protein transport inhibitors brefeldin (Cat #00-4506-51, Thermo Fisher Scientific) and monensin (Cat #00-4505-51, Thermo Fisher Scientific) for 6 hr at a final concentration of 2 μM monensin and 3 μg/mL brefeldin after which they were collected and were processed for staining for flow cytometry.
Of note, no changes in the percentage of Ly6C+/Ly6G+ MDSCs in tumors between the two treatment conditions were observed (FIG. 10D). […] The addition of tumor conditioned media allows the TME to be partially mimicked where tumor derived factors influence the differentiation and polarization of macrophages. […] The polarized macrophages were subsequently co-cultured with sub-optimally activated T cells (CD3/CD28 and IL2) isolated from spleens of non-tumor bearing mice, for 72 hr following which they were treated with protein transport inhibitors (monensin and brefeldin) for 6 hr to prevent release of cytokines and chemokines.

[2] = test system: BPD6 tumors; assay: BPD6 syngeneic melanoma tumor model in ovariectomized mice (tumor growth, flow cytometry); type: in vivo, mouse
Source text: FIGS. 18E-18G show quantification of M1 macrophages (MHCII^hi CD206^−ive), GZMB^+CD8^+ T cells, and PD1^+CD8^+ T cells in YuMM5.2 tumors from FIG. 18C (n=4). […] Vehicle+IgG (n=10, red), fulvestrant+IgG (n=15, blue), vehicle+ICB (n=15, black), and fulvestrant+ICB (n=15, brown). Black arrow indicates start of ICB treatment regimen. […] Vehicle+IgG (n=9, red), fulvestrant+IgG (n=8, blue), vehicle+ICB (n=9, black), and fulvestrant+ICB (n=10, brown). Black arrow indicates start of anti-PD1 treatment regimen. […] FIGS. 18A-18C are representative of two individual experiments. Data are expressed as mean 3 S.E.M. Significance was calculated by one-way ANOVA followed by Bonferroni's multiple correction (FIG. 18K), by Student's t test (FIG. 18L), and by log rank test (FIG. 18M) (*p<0.05, **p<0.01, and ***p<0.001).
Tumor models and cells. The mouse B16F10 and Yumm5.2 cell lines were purchased from American Type Culture Collection (ATCC, Manassas, VA). The mouse melanoma cell line BPD6 was established from iBP as described elsewhere (Zhao et al., Immunity 2018, 48, 147-160). B16F10 and BPD6 cells were maintained in Dulbecco's Modified Eagle's Medium (DMEM) supplemented with 8% fetal bovine serum (FBS), 0.1 mM non-essential amino acids (NEAA) and 1 mM sodium pyruvate. YuMM5.2 cells were maintained in DMEM/F12 media supplemented with 10% FBS. The cells were replated 3 times/week at a confluency of 1:10 and were kept in a 37° C. incubator at 5% CO2. For subcutaneous tumor models B16F10 (5×10^4 or 1×10^5), YuMM5.2 (5×10^5), and BPD6 (5×10^5) cells were injected into the right flank of the mice. For iBP mice, tumors were induced with a single intradermal dose of 4-hydroxytamoxifen in DMSO (150 μg/mouse). Tumors were measured thrice weekly using an electronic caliper. Tumor volumes were calculated by the formula V=L×(W×W)/2. For iBP mouse tumors, volumes were calculated by the formula V=L×B×H. For tumor growth rate studies mice were euthanized when the tumors reached a maximum size of 2000 mm^3.
Ovarlectomy and subcutaneous pellet Insertion. Ovariectomy was performed as previously described (Nelson et al., Science 2013, 342, 1094-1098). Eight days prior to tumor inoculation, 7 weeks old C57BL/6J or 5 weeks old (iBP) female mice were subjected to ovariectomy or sham surgery. Mice were anesthetized in an inhalation chamber (2% Isoflurane) and maintained in half the dose of isoflurane (1%) via nose cone throughout the surgical process. Prior to surgery, mice were administered a 5 mg/kg dose of carprofen subcutaneously. The area below the ribs was shaved with an electronic razor and the skin was sterilized by rubbing with betadine and alcohol (3× alternating). A horizontal incision was made through the skin above the ovary fat pad, followed by a vertical incision through the abdominal muscle wall. The ovary was externalized and removed using a cauterizing scissors (or returned if sham). Fat pad was replaced, and muscle walls were opposed and sutured (1-2 stitches). Following suturing, 1 drop of bupivacaine (0.25%) was added on top of the incision site. The skin was opposed, and a wound clip was placed on the incision site. This was repeated for the other ovary. The mouse was then removed from anesthesia and kept in a clean cage and monitored until conscious. The mice were monitored for recovery for 10 days.
Fulvestrant treatment Mice were injected with fulvestrant (Cat #HY-13636 MedChemExpress) 2 days after tumor injection at a dose of 25 mg/kg via intramuscular route. […]

**Q.** Which results are given for `C[C@]12CC[C@@H]3c4ccc(O)cc4C[C@@H](CCCCCCCCC[S+]([O-])CCCC(F)(F)C(F)(F)F)[C@H]3[C@@H]1CC[C@@H]2O` (stereo partly drawn) [fulvestrant]?
**A.** E2-induced suppression of T cell proliferation ([1]; macrophages differentiated in 30% TCM, E2 (1 nM)+fulvestrant (100 nM)): reversed; proliferation of T cells (CFSE dilution) ([1]; E2+fulvestrant): not affected; intratumoral M1/M2 ratio ([2]; E2 treated mice co-treated with fulvestrant): increase; tumor growth ([2]; PD1 sensitive model, fulvestrant alone): slows tumor growth; tumor growth ([2]; fulvestrant 25 mg/kg, E2 supplemented mice): significantly reduced

**Q.** Which “proliferation of T cells (CFSE)” value ([1]; BMDM from Esr1^f/f and Esr1^f/f, LysMCre differentiated in NM, DMSO or E2) does the source give for 17β-estradiol [E2] here?
**A.** No difference

**Q.** And the “T cell proliferation (CFSE dilution)” value ([1]; macrophages differentiated in 30% TCM and E2)?
**A.** effectively suppressed

**Q.** What about the “proliferation of T cells (CFSE dilution)” value ([1]; E2) of the same compound?
**A.** not affected

**Q.** And the “expression of GZMB and IFNγ in T cells” value ([1]; macrophages differentiated in TCM, E2 1 nM vs DMSO)?
**A.** decreased expression

**Q.** And the “expression of IFNγ and GZMB in T cells” value ([1]; macrophages in normal media (NM), E2 1 nM)?
**A.** did not display any change

**Q.** And the tumor growth ([2]; E2 vs placebo, ovariectomized C57BL/6J)?
**A.** significantly increased

**Q.** And the “percentage of Ly6C+/Ly6G+ MDSCs in tumors” value ([2]; flow cytometry, E2 vs placebo)?
**A.** no changes
